Results from ChEMBL document CHEMBL3244274, “Antiallergic 9-oxo-11-hydroxy-5H,9H-[2]benzopyrano[4,3-g][1]benzopyrans” (J Med Chem, 1978).
In brackets after ≈: the same amount, converted by molar mass.

What was measured:
Rattus norvegicus [1] = assay: Antiallergic activity in adrenalectomized Sprague-Dawley rat assessed as inhibition of egg albumin-induced passive cutaneous anaphylaxis reaction at 10 mg/kg, iv after 30 mins by Evans blue staining; type: functional; conditions: 0.5 h
Ileum [2] = assay: Antiallergic activity in guinea pig ileum strips assessed as inhibition of serotonin-induced anaphylaxis; type: functional, tissue-based; conditions: Cavia porcellus
Ileum [3] = assay: Antiallergic activity in guinea pig ileum strips assessed as inhibition of bradykinin-induced anaphylaxis; type: functional, tissue-based; conditions: Cavia porcellus
Stomach [4] = assay: Antiallergic activity in rat stomach strips assessed as inhibition of PGE2-induced anaphylaxis; type: functional, tissue-based
Stomach [5] = assay: Antiallergic activity in rat stomach strips assessed as inhibition of […]-induced anaphylaxis; type: functional, tissue-based
[6] = Antiallergic activity in guinea pig lung tissue assessed as inhibition of SRS-A production; type: functional, tissue-based, Cavia porcellus
Ileum [7] = assay: Antiallergic activity in guinea pig ileum strips assessed as inhibition of histamine-induced anaphylaxis; type: functional, tissue-based; conditions: Cavia porcellus
Rattus norvegicus [8] = assay: Antiallergic activity in iv dosed adrenalectomized Sprague-Dawley rat assessed as inhibition of egg albumin-induced passive cutaneous anaphylaxis reaction after 30 mins by Evans blue staining; type: functional; conditions: 0.5 h
Stomach [9] = assay: Antiallergic activity in rat stomach strips assessed as inhibition of PGE2-induced anaphylaxis at 25 ug/ml; type: functional
Stomach [10] = assay: Antiallergic activity in rat stomach strips assessed as inhibition of […]-induced anaphylaxis at 25 ug/ml; type: functional
Stomach [11] = assay: Antiallergic activity in rat stomach strips assessed as inhibition of […]-induced anaphylaxis at 100 ug/ml; type: functional
[12] = Antiallergic activity in guinea pig lung tissue assessed as inhibition of SRS-A production at 1 ug/ml; type: functional; conditions: Cavia porcellus
Rattus norvegicus [13] = assay: Antiallergic activity in adrenalectomized Sprague-Dawley rat assessed as inhibition of egg albumin-induced passive cutaneous anaphylaxis reaction at 3 mg/kg, iv after 30 mins by Evans blue staining; type: functional; conditions: 0.5 h
Rattus norvegicus [14] = assay: Toxicity in adrenalectomized Sprague-Dawley rat at 10 mg/kg, iv; type: organism-based; set-up: dose 10 mg/kg, route intravenous; conditions: in vivo

Row | EC50 (Ileum [2]) [µg/mL] | EC50 (Ileum [3]) [µg/mL] | EC50 (Stomach [4]) [µg/mL] | EC50 (Stomach [5]) [µg/mL] | EC50 [6] [µg/mL] | EC50 (Ileum [7]) [µg/mL] | SMILES | inhibition in vivo at 10 mg/kg (Rattus norvegicus [1]) [%] | ED50 (Rattus norvegicus [8]) [mg/kg] | inhibition at 25 µg/mL (Stomach [9]) [%] | inhibition at 25 µg/mL (Stomach [10]) [%] | inhibition at 100 µg/mL (Stomach [11]) [%] | inhibition at 1 µg/mL [12] [%] | inhibition in vivo at 3 mg/kg (Rattus norvegicus [13]) [%] | Activity (Rattus norvegicus [14])
1 | 4.4 | 51 | 55 | 14 | 28 | 39 | COc1cc2c(cc1Br)-c1cc3c([O-])cc(=O)oc3cc1OC2(C)C.[Na+] | 33 |  |  |  |  |  |  | 
2 | 10.2 | 5.3 | 45 |  |  | 21 | CC1(C)Oc2cc3oc(=O)cc([O-])c3cc2-c2ccc(Cl)cc21.[Na+] | 0 |  |  |  |  |  |  | 
3 | > 200 | > 200 | > 200 | > 200 | > 200 | > 200 | O=C([O-])c1cc(=O)c2c(OCC(O)COc3cccc4oc(C(=O)[O-])cc(=O)c34)cccc2o1.[Na+].[Na+] [CROMOLYN SODIUM] | 80 | 2.9 |  |  |  |  |  | 
4 | 16 | 9.2 | 68 | 23 |  | 13.2 | COc1ccc2c(c1)C(C)(C)Oc1cc3oc(=O)cc([O-])c3cc1-2.[Na+] | 67 | 9 |  |  |  |  |  | 
5 | 4.7 | 14 | 70 |  |  | 7 | CCCOc1ccc2c(c1)C(C)(C)Oc1cc3oc(=O)cc([O-])c3cc1-2.[Na+] | 0 |  |  |  |  |  |  | 
6 | 10.2 | 17 | 56 | 26 |  | 55 | CC1(C)Oc2cc3oc(=O)cc([O-])c3cc2-c2ccccc21.[Na+] | 67 |  |  |  |  |  |  | 
7 | 11 | 92 | 62 | 16 |  | > 200 | CC1(C)Oc2cc3oc(=O)cc([O-])c3cc2-c2ccc(OCCO)cc21.[Na+] | 87 | 0.3 |  |  |  |  |  | 
8 | 92 | 145 | 70 | 17 | 32 | 150 | CC1(C)Oc2cc3oc(C(=O)O)cc(=O)c3cc2-c2ccccc21.NCCO | 81 | 0.5 |  |  |  |  |  | 
9 | 4.8 | 17.5 |  |  |  | 14.5 | Cc1c2c(cc3oc(=O)cc([O-])c13)OC(C)(C)c1ccccc1-2.[Na+] | 0 |  |  |  |  |  |  | 
10 | 15 | 84 | 40 | 47 | 13 | > 200 | CC1(C)Oc2cc3oc(=O)cc([O-])c3cc2-c2ccc(O)cc21.[Na+] | 61 |  |  |  |  |  |  | 
11 |  |  |  |  |  |  | CC1(C)Oc2cc3oc(=O)cc(O)c3cc2-c2ccc(F)cc21 | 60 |  |  |  |  |  |  | 
12 | 0.04 (≈ 0.139 µM) | 2 (≈ 6.96 µM) | 25 (≈ 87 µM) | 65 (≈ 226 µM) | < 1 | 0.04 (≈ 0.139 µM) | CN1CCC(=C2c3ccccc3C=Cc3ccccc32)CC1 [CYPROHEPTADINE] | 51 |  | 54 | 33 | 74 | 62 | 30 | Toxic
